Data reported in ChEMBL document CHEMBL3507680, “University of Dundee, Gates Library screen for HepG2 cell viability”.

Test: Human HepG2 cell viability assay in 384 well format
Type: toxicity, cell-based
Parameters: dose 125 nL, time 70.5 hour; cytotoxicity at 70.5 h: concentration not given beside the values
Conditions: HepG2 cells, read-out: Inhibition

Compared with `CC(C)(C)C(=O)NCc1cnn2ccccc12`, `COC(=O)NCCCn1ccnc1-c1ccccc1` is lower in cytotoxicity at 70.5 h: -6.45% for the first, -6.73% for the second.

Going from `CO[C@@H]1CCN(c2ncc(F)cn2)[C@@H]2CN(Cc3cccnc3)C[C@@H]21` to `CC1c2ncc(COc3cccnc3)n2CCN1Cc1cnn(C)c1` (stereo unspecified), the cytotoxicity at 70.5 h falls from -0.732% to -9.85%.

Compared with `CN1CCC(c2cncc(C(=O)NCc3ccc(F)cc3)n2)CC1`, `CC(C)C(O)C1CCN(c2ccnc(C(=O)NCc3ccco3)c2)CC1` (stereo unspecified) is lower in cytotoxicity at 70.5 h: -5.99% for the first, -14.1% for the second.

Going from `COc1ccccc1CCNC(=O)NC(C)COCC(F)(F)F` (stereo unspecified) to `CN(CCOCC1CC1)C(=O)Cn1cccc(C(F)(F)F)c1=O`, the cytotoxicity at 70.5 h rises from -5.34% to -1.06%.

Going from `CCOc1ccc(Cl)cc1NC(=O)N1CCC(n2cncn2)CC1` to `CCN1CCN(C(=O)NCc2cccc(-c3cnn(C)c3)c2)CC1`, the cytotoxicity at 70.5 h rises from -7.8% to -2.59%.

Going from `CCOC(=O)[C@]12CCCN(Cc3nccs3)C[C@H]1CN(CCN(C)C)C2` to `COCCN1CCN(CC(=O)N(C)Cc2ccccc2)CC1C` (stereo unspecified), the cytotoxicity at 70.5 h rises from -10.1% to 53.1%.

Going from `Oc1ccc(CCC2CCCCN2Cc2noc(C3CC3)n2)cc1` (stereo unspecified) to `CN1CCC(Cc2noc(CCc3nc4ccccc4nc3O)n2)CC1`, the cytotoxicity at 70.5 h falls from 15.5% to -7.26%.

Compared with `COc1ccc2c(ccn2CC(=O)N2CCCC2c2cnn(C)c2)c1` (stereo unspecified), `CCC(=O)N1CC[C@@H](c2ccc3ccccc3c2)[C@H](O)C1` is lower in cytotoxicity at 70.5 h: 0.452% for the first, -10.5% for the second.

First: CN(C)c1ncc(-c2cc(C(=O)NCCC#N)n(CC3CC3)c2)cn1
Second: Cc1ccc(C(=O)NCCC2CCN(C)CC2)cc1N(C)S(C)(=O)=O
The cytotoxicity at 70.5 h of the first is lower: -12.9% for the first, 24% for the second.

Going from `O=c1cc(CN(CCO)C2CC2)nc2ccc(Cl)cn12` to `COC(=O)CCC(=O)N(Cc1ccc2cc[nH]c2c1)C1CC1`, the cytotoxicity at 70.5 h falls from 14.2% to -17.3%.

Compared with `N#CCCCS(=O)(=O)NC(=O)c1ccccc1F`, `CCCS(=O)(=O)N1CCC(NC(=O)c2ccc(Cl)s2)CC1` is lower in cytotoxicity at 70.5 h: -0.732% for the first, -11.6% for the second.

Compared with `CC(Oc1ccccc1)C(=O)N1CCCN(Cc2nccn2C)CC1` (stereo unspecified), `O=C(c1ccco1)N1CCN2C[C@H](OCc3cccnc3)C[C@H]2C1` is lower in cytotoxicity at 70.5 h: -10.4% for the first, -12.3% for the second.

Going from `CCCC(=O)Nc1cc2c(cc1OC)NC(=O)CC2c1ccc(CC)o1` (stereo unspecified) to `COc1cccc(C(=O)Nc2cc(CC(C)C)nn2C)c1`, the cytotoxicity at 70.5 h falls from 22.1% to 3.59%.

Compared with `Cc1ccc(C2(O)CCN(C(=O)CCn3c(C)cccc3=O)CC2)nc1`, `Cc1ccsc1C(=O)N1CCC2(CC1)C(=O)N(C)CCN2CC1CC1` is lower in cytotoxicity at 70.5 h: 27.8% for the first, -12.8% for the second.

Compared with `Cc1csc(N2CCCN(C(=O)c3nccnc3N)CC2)n1`, `Cc1cnc(C(=O)N2CCN(c3ncc4c(n3)CCOC4)CC2)cn1` is lower in cytotoxicity at 70.5 h: -0.698% for the first, -1.26% for the second.

Compared with `CC(C)CNC(=O)C1=NOC2(CCN(Cc3cccc(C#N)c3)C2)C1` (stereo unspecified), `Cc1cnn(CCNCc2cc(C#N)ccc2F)c1` is higher in cytotoxicity at 70.5 h: -1.8% for the first, 18.7% for the second.

Compared with `O=S(=O)(c1cccnc1)N1C[C@@H]2COC[C@]2(CN2CCOCC2)C1`, `O=C(O)CC[C@@H]1CN(c2ccncc2)CC[C@@H]1N1CCOCC1` is higher in cytotoxicity at 70.5 h: -4.52% for the first, -3.32% for the second.

First: CC(C)(C)CC(=O)N1CCC(n2cc(C3(O)CCCC3)nn2)CC1
Second: CN(CC(=O)N1CC(C)(C)[C@](O)(C2CC2)C1)Cc1ccncc1
The cytotoxicity at 70.5 h of the first is lower: -7.65% for the first, -3.61% for the second.

First: COC(=O)c1ccc(N2CCN(C(=O)C3CC3)C(C)C2)cc1 (stereo unspecified)
Second: Cc1ccc(-c2nc(CN3CCC(N4CCNC4=O)CC3)co2)cc1
The cytotoxicity at 70.5 h of the first is lower: -5.06% for the first, -0.587% for the second.

First: Cc1cc(C)n(C2CCCN(C(=O)c3ccc(N(C)C)nn3)C2)n1 (stereo unspecified)
Second: Cc1nc(C2CCCN(C(=O)c3cccc4c3OCO4)C2)no1 (stereo unspecified)
The cytotoxicity at 70.5 h of the first is higher: -4.23% for the first, -4.51% for the second.

Going from `CN(Cc1ccsc1)C(=O)C1CCC(=O)N(Cc2ccccn2)C1` (stereo unspecified) to `CN(CCc1ccccn1)C(=O)Nc1cccnc1-n1cccn1`, the cytotoxicity at 70.5 h falls from -5.03% to -16.2%.

Going from `NC(=O)c1cc(C2CCCN(Cc3ccc4c(c3)OCCO4)C2)n[nH]1` (stereo unspecified) to `c1ccc(O[C@H]2COCCN(CC3CC3)C2)cc1`, the cytotoxicity at 70.5 h rises from -22.9% to -1.48%.

First: Cc1ccc(NCc2ccc(C#N)cc2)cc1-n1cnnn1
Second: COCCCN(Cc1ccncc1)c1ncc(C#N)cc1Cl
The cytotoxicity at 70.5 h of the first is higher: 10.5% for the first, -0.375% for the second.

Going from `CS(=O)(=O)NC[C@H]1OC[C@H]2CN(CCc3ccccc3)CC[C@H]21` to `CN(Cc1noc2c1CCCC2)C(=O)Cn1c(=O)cnc2ccccc21`, the cytotoxicity at 70.5 h falls from -0.811% to -12.8%.

First: Cn1cc(-c2ncc3c(c2C(=O)O)CCN(Cc2ccco2)C3)cn1
Second: Cc1nc(CN2CCc3ncnc(-c4cccnc4)c3CC2)cs1
The cytotoxicity at 70.5 h of the first is lower: -5.93% for the first, 42.8% for the second.

First: OC1(CNc2ccc(F)cc2)CCNCC1
Second: CC(CNC(=O)c1c[nH]nn1)Oc1ccc(Cl)cc1 (stereo unspecified)
The cytotoxicity at 70.5 h of the first is higher: -7.97% for the first, -22.2% for the second.

Compared with `Cc1n[nH]c(C)c1-c1cc(-c2cccc(O)c2)nc(N)c1C#N`, `CN(C)c1nc(NCCc2ccccn2)ncc1F` is higher in cytotoxicity at 70.5 h: -8.76% for the first, 25.5% for the second.

Compared with `NC(=O)Cn1ccc(O)c(Cc2ccc(Cl)cc2Cl)c1=O`, `Cc1nn(C)c(N(C)C)c1CNCc1ccnc(N2CCCCC2)c1` is lower in cytotoxicity at 70.5 h: 3.22% for the first, -2.08% for the second.
